Test results as given in patent US20180339016A1 (priority 2015, published 2018).
“And” between values parts separate entries of the source, which are not always exact repeats. Identical values can stand only once.

How the values were obtained:
[1] = system: Staphylococcus aureus (ATCC 29213); assay: MIC of peptide against S. aureus; type: cell-based; conditions: peptide alone
Protocol: (§1) The N-terminus of the peptides were acetylated and the C-terminus was amidated. The kinked structure can rapidly reduce the alpha-helical content, thereby greatly reducing the toxicity of the peptide against host cells. In addition, because of the potential to show specificity for the Gram-negative bacterial membrane, Pro-mutants were prepared by site-directed mutagenesis. Using the prepared peptides, their MIC for the Gram-negative bacterium E. coli and the Gram-positive bacterium S. aureus and their hemolytic activity for host cells were examined (Table 1).

[2] = system: E. coli ATCC 25922; assay: Antibiotic interaction assay (Wimley), 2/3 broth microdilution: MIC alone, MIC of combination, FICI; type: cell-based
Protocol: Synergy was evaluated by an antibiotic interaction assay (Wimley, 2015) Using the method of Wimley (BBA, 2015, v. 1848(1), pp. 8-15), synergy between the membrane-activating peptide and an antibiotic was measured by an FICI value (FIG. 17). […] Thus, to accurately examine synergy, a ⅔ dilution method which observes MIC at denser concentration intervals is advantageous over a ½ dilution method in statistical terms. […] In the same manner, the MIC of an antibiotic or repositioning drug (second line) is measured. In the third line, the two compounds are mixed after putting half amount each, and the MIC thereof is measured.
A broth microdilution technique (⅔ dilution) was used together with an MH broth. E. coli treated with an antibiotic and the peptide was incubated in a 37° C. incubator for 18 hours.
(§2) To measure the synergy between the membrane-activating peptides and the repositioning drug, a 10× compound was prepared, and then serially diluted ⅔-fold with distilled water. An MH broth (900 μl) was added to and mixed with the 10× compound (100 μl), and then 200 μL of the mixture was taken and added to a 96-well plate. E. coli cultured for one day was adjusted to 0.5 MCF using MCFarland, and diluted 10-fold, and then 10 μl of the dilution was added to each well of the plate (5×10^5 CFU/mL). After addition of the bacterial cells, plate was incubated at 37° C. for 18 hours, and then the OD value at UV-Vis (600 nm) was measured. Cell viability (%)=(OD600 of sample−OD600 of negative control)/(OD600 of positive control−OD600 of negative control)×100.

[3] = system: Escherichia coli (ATCC 25922); conditions: peptide alone; peptide concentration required to inhibit growth by 20% (so in the source)
Protocol: as §1, §2

[4] = system: E. coli ATCC 25922; conditions: Table 4
[5] = labelled peptide + colistin + linezolid
[6] = three compounds: labelled peptide + colistin + linezolid

## LKKLLKPPKKLLKL [LK-L7PL8P]
[1]
  MIC [μM] Against S. aureus: >40 µM
[2]; colistin concentration in combination with labelled peptide
  MIC of combination (μM): antibiotic (colistin): 0.09 µM
[2]; labelled peptide + colistin
  FICI of peptide with colistin: 0.3 and 0.34
  FICIPeptide: 0.16
  FICIcolistin / FICIantibiotic: 0.18
[2]; [5]
  FICI of peptide with colistin and linezolid: 0.27
  FICIPeptide: 0.07
  FICIcolistin: 0.09
  FICIlinezolid: 0.11
[2]; labelled peptide + linezolid
  FICI of peptide with linezolid: 0.53
  FICIPeptide: 0.26
  FICIlinezolid: 0.27
[2]; labelled peptide + linezolid, listed as LK-L7P/L8P
  FICI of peptide with linezolid: about 0.53
[2]; linezolid concentration in combination with labelled peptide
  MIC of combination (μM): linezolid: 22 µM
[2]; peptide alone
  MIC of peptide: 53 µM
[2]; peptide concentration in combination with linezolid
  MIC of combination (μM): peptide: 14 µM
[2]; [6]
  MIC of combination (μM): colistin: 0.040 µM
  MIC of combination (μM): linezolid: 5.9 µM
  MIC of combination (μM): peptide: 4.7 µM
[3]
  MIC [μM] Against E. coli: 40 µM

## KLLKLPKKLLKLLK [KL-L6P]
[1]
  MIC [μM] Against S. aureus: >40 µM
[4]
  Fractional Inhibitory Concentration Index (FICI), Colistin & 1 μM peptide: 0.83, Synergism
[4]; bacterial growth <10% of control
  MIC (μM) against E. coli ATCC 25922, Peptide alone: 3 µM
[3]
  MIC [μM] Against E. coli: 10 µM

## LKKLPKLLKKPLKL [LK-L5PL11P]
[1]
  MIC [μM] Against S. aureus: >40 µM
[3]
  MIC [μM] Against E. coli: 40 µM

## LKKLLKLPKKPLKL [LK-L8PL11P]
[1]
  MIC [μM] Against S. aureus: >40 µM
[3]
  MIC [μM] Against E. coli: 40 µM

## LKKLLKLLKKLLKL
[1]
  MIC [μM] Against S. aureus: 20 µM
[3]
  MIC [μM] Against E. coli: 20 µM

## LKKLLKLLPKLLKL [LK-K9P]
[1]
  MIC [μM] Against S. aureus: 5.0 µM
[3]
  MIC [μM] Against E. coli: 5.0 µM

## KLLKLLKKLLKLLK
[1]
  MIC [μM] Against S. aureus: 20 µM
[3]
  MIC [μM] Against E. coli: 20 µM

## LKKLPKLPKKLLKL [LK-L5PL8P]
[1]
  MIC [μM] Against S. aureus: >40 µM
[3]
  MIC [μM] Against E. coli: 20 µM
